How the values were obtained:
[1] = tested on: E-ras 20 cells (E-ras transformed bovine endothelial cells); experiment: Tumorigenicity of pretreated E-ras 20 cells in athymic nude mice; assay type: in vivo, bovine cells in nude mice; details: 10 μM
Method: E-ras transformed bovine endothelial cells (Bauer et al., 1996, Intl. J. Oncology 8:239-252) were exposed to 10 μM DIME for […]. The DIME-treated cells (10^5 or 10^6 cells/100 μL) were injected subcutaneously into nude mice and tumor progression followed for 25 days.
Tumorigenicity of E-ras 20 Cells in athymic nude mice was assayed as described previously. Bauer et al., 1996, "Modification of growth related enzymatic pathways and apparent loss of tumorigenicity of a ras-transformed bovine endothelial cell line by treatment with 5-iodo-6-amino-1,2-benzopyrone (INH2 BP)" Intl. J. Oncol. 8:239-252. The in vivo antitumorigenic action of DIME was assayed on athymic mice inoculated with 10^6 MDA-MB-231 cells, as in the tumorgenicity assay. In about 10-14 days when subcutaneous tumors appeared, DIME treatment consisting of p.o. administration of DIME suspension (once a day) was commenced and continued for 28-32 days as reported, Kun et al., 1996, "Induction of tumor apotosis by methyl-3,5-diiodo-4-(4'-methoxyphenoxy) benzoate (DIME)", Abstract No. 102, Int. J. Oncol. 9:supplement 829.
The structural specificity of DIME and its homologs and analogs can be assessed by examining Table 7 and Table 8. We have prepared 17 novel structural analogs of DIME and compared the antitumor activity of 10 of the compounds (Table 8) which appears sufficient to draw some general conclusions. The biological assay chosen was the determination of antitumorigenic action of the drugs on the in vivo tumorigenicity of E-ras cells in nude mice, Bauer et al., 1996, "Modification of growth related enzymatic pathways and apparent loss of tumorigenicity of a ras-transformed bovine endothelial cell line by treatment with 5-iodo-6-amino-1,2-benzopyrone (INH2 BP)" Intl. J. Oncol. 8:239-252. E-ras 20 cells (10^5 or 10^6) were incubated with 10 μM DIME or analogs for 4 days, then 10^5 and 10^6 cells were inoculated subcutaneously into nude mice (5 per test) and rates of tumor formation quantitated by direct tumor volume measurements (cf. 2). […] Identical antitumorigenic tests were performed with nine DIME analogs and taking the effect of DIME as 100% (comparing tumor sizes at day 25) the antitumor efficacy was calculated as percent of DIME activity. […] Results summarized in Table 8 illustrate that substituents in R1 and R2 determine antitumor efficacy.
The efficacy of DIME analogs on in vivo tumorigenicity of Eras 20 cells i
athymic mice was compared to that of DIME (compound 1) which was taken as
100, determining the size of tumor reduction at day 25. Pretreatment with
DIME or its analogs (Table 7) was with 10 μM for 4 days prior to s.c.

[2] = tested on: microtubule protein (MTP); experiment: Microtubule protein (MTP) polymerization optical test; assay type: biochemical, bovine or rabbit
Method: Preparation of MTP and an optical test for polymerization was adopted from published methods, Gaskin, et al., 1974, "Turbidimetric studies of the in vitro assembly and disassembly of porcine neurotubules", J. Mol. Biol. 89:737-758; Tiwari, et al., 1993, "A pH and temperature-dependent cycling method that doubles the yield of microtubule protein", Anal. Biochem. 215:96-103. Bovine or rabbit brain was homogenized in an equal volume of ice cold buffer containing 100 mM Pipes/K^+ (pH 7.4), 4 mM EGTA, 1 mM MgCl2, 0.5 mM DTT and 0.1 mM PMSF, and centrifuged at 39,000 g for 1 hour at 4° C. To the supernatant, DMSO (8% final concentration) and GTP (1 mM final concentration) were added, followed by incubation at 37° C. for 30 minutes. Microtubules were pelleted at 100,000 g at 37° C for 30 minutes. The pellets were incubated on ice for 15 minutes, followed by resuspension in ice cold PEM buffer (100 mM Pipes/K+(pH 6.9), 1 mM EGTA, 1 mM MgCl2). This warm polymerization and cold depolymerization cycle was repeated once more and the cold, resuspended monomeric MTP (8-10 mg/ml protein) was used for the optical test for polymerization kinetics. Both rabbit or bovine brain yielded identical MTP preparations.
The composition of the optical test is described in the legends of Figures and Table 12. The polymerization reaction was started by the addition of 100 μl of MTP solution (equivalent to 0.8-1.0 mg protein) and initial linear rates of increase in absorbance at 350 nm followed and recorded at 37° C. (see FIG. 1) in a Perkin-Elmer 552 double beam spectrophotometer, equipped with a thermostatically controlled cuvette holder.
[…] Microtubule assembly at 37° C. was monitored at λ=350 nm and initial velocities were calculated as mA350 /min. […] The values are averages of duplicate assays.

[3] = tested on: HL-60 (promyelocytic leukemia); experiment: Cytocidal action/growth inhibition, HL-60; assay type: cell-based; details: Homo sapiens, 72 h
Method: Seven human cancer cell lines were obtained from the American Tissue Culture Collection (Rockville, Md.) and maintained in the recommended growth media. Cells were seeded into wells (2 cm^2) at a density of 2×10^4 cells/cm^2. Various concentrations of Compounds 1-13 were added to the media at the time of seeding.
The cultures were incubated for 72 hours at 37° C. (5% CO2 atmosphere). Following incubation, cells were detached with trypsin and counted in a hemocytometer.
I100 designates the concentration at which no viable cells remained; I50 the concentration at which 50% viable cells remained, as compared to a control.
E-ras 20 cells were cultured as reported, Bauer et al., 1996, "Modification of growth related enzymatic pathways and apparent loss of tumorigenicity of a ras-transformed bovine endothelial cell line by treatment with 5-iodo-6-amino-1,2-benzopyrone (INH2 BP)" Intl. J. Oncol. 8:239-252; HT-144 (melanoma), DU-145 (prostatic cancer), HeLa (cervical cancer), HL 60 (promyelocytic leukemia), MDA-MB-231 (mammary cancer), SK-Br-3 (mammary cancer), T47D (ductal mammary cancer), A559 (lung cancer) were obtained from American Type Culture Collection (Rockville, Md.) and cultured in prescribed media. […]

## COC(=O)c1cc(I)c(Oc2ccc(OC)cc2)c(I)c1 [Compound 1, Methyl 3,5-diiodo-4-(4'-methoxyphenoxy)benzoate]
[1]; 3 days pretreatment, followed 25 days
  tumorigenicity of pretreated cells: nearly completely abolished tumorigenicity
[1]; 4 days pretreatment
  tumor formation from pretreated cells (FIG. 4): tumor formation was completely abrogated
[1]; 4 days pretreatment, tumor size at day 25
  Efficacy (inhibition of E-ras 20 tumorigenicity, DIME = 100): 100%
[2]; 1 μM DIME
  decrease of Vmax: ~50%
[2]; 1 μM DIME, versus GTP
  type of inhibition of MTP polymerization: "mixed" type inhibition
[2]; 1 μM DIME, 6.7 μM without drug, read-out: km GTP
  Km: 14 µM
[2]; 10 μM, 1 mM GTP, 37° C.
  Percent inhibition of initial velocity of microtubule assembly: 93%
[2]; 1 to 5 μM
  inhibition of GTP-dependent polymerization of MTP: inhibits the GTP-dependent polymerization of MTP
[3]; Table 4, read-out: I50
  IC50: 600 nM
[3]; Table 4, read-out: I100 (no viable cells remained)
  IC100: 3 µM

— patent US6017958A, “Method of treating malignant tumors with thyroxine analogues having no significant hormonal activity” (Octamer, Inc., priority 1997, dated 2000)
